Source: ChEMBL document CHEMBL3352057, “Novel fluorinated pyrrolo[1,2-a]pyrazine-2,6-dione derivatives: synthesis and anticonvulsant evaluation in animal models of epilepsy” (Bioorg Med Chem, 2014)
Active and inactive are the calls of the source. The rule behind the calls is not given here.

Tests used:
[1] = tested on: Rattus norvegicus; assay: Neurotoxicity in MES Sprague-Dawley rat model at 30 mg/kg, ip measured after 2 hrs; type: toxicity, organism-based; design: dose 30 mg/kg, route intraperitoneal; conditions: in vivo
[2] = tested on: Mus musculus; assay: Neurotoxicity in 32 mA current-induced seizure albino CF1 mouse model at 100 mg/kg, ip measured after 2 hrs; type: toxicity, organism-based; design: dose 100 mg/kg, route intraperitoneal; conditions: in vivo
[3] = Protective index, ratio of TD50 for neurotoxicity in ip dosed Sprague-Dawley rat to ED50 for anticonvulsant activity in ip dosed MES Sprague-Dawley rat model; type: toxicity, organism-based; conditions: in vivo, read-out: Ratio TD50/ED50
[4] = tested on: Mus musculus; assay: Neurotoxicity in 44 mA current-induced seizure albino CF1 mouse model at 100 mg/kg, ip measured after 2 hrs; type: toxicity, organism-based; design: dose 100 mg/kg, route intraperitoneal; conditions: in vivo
[5] = tested on: Mus musculus; assay: Neurotoxicity in 44 mA current-induced seizure albino CF1 mouse model at 100 mg/kg, ip measured after 4 hrs; type: toxicity, organism-based; design: dose 100 mg/kg, route intraperitoneal; conditions: in vivo
[6] = tested on: Rattus norvegicus; assay: Neurotoxicity in MES Sprague-Dawley rat model at 30 mg/kg, ip measured after 0.5 hr; type: toxicity, organism-based; design: dose 30 mg/kg, route intraperitoneal; conditions: in vivo
[7] = tested on: Mus musculus; assay: Anticonvulsant activity in albino CF1 mouse assessed as protection against maximal electroshock-induced seizures at 100 mg/kg, ip measured after 4 hrs; type: functional, organism-based; design: dose 100 mg/kg
[8] = tested on: Rattus norvegicus; assay: Neurotoxicity in MES Sprague-Dawley rat model at 30 mg/kg, po measured after 1 hr; type: toxicity, organism-based; design: dose 30 mg/kg, route oral; conditions: in vivo
[9] = tested on: Rattus norvegicus; assay: Anticonvulsant activity in Sprague-Dawley rat assessed as protection against maximal electroshock-induced seizures at 30 mg/kg, po measured after 1 hr; type: functional, organism-based; design: dose 30 mg/kg
[10] = tested on: Rattus norvegicus; assay: Anticonvulsant activity in ip dosed Sprague-Dawley rat assessed as protection against maximal electroshock-induced seizures; type: functional
[11] = tested on: Mus musculus; assay: Anticonvulsant activity in albino CF1 mouse assessed as protection against 32 mA current-induced seizures at 100 mg/kg, ip measured after 0.5 hr; type: functional, organism-based; design: dose 100 mg/kg
[12] = tested on: Mus musculus; assay: Anticonvulsant activity in albino CF1 mouse assessed as protection against iv infusion metrazol-induced seizures measured as twitch at 79 mg/kg, ip (reference value: 28.2 mg/kg); type: functional
[13] = tested on: Mus musculus; assay: Neurotoxicity in albino CF1 mouse at 100 mg/kg, ip measured after 0.5 hr; type: toxicity, organism-based; design: dose 100 mg/kg, route intraperitoneal; conditions: in vivo
[14] = Neurotoxicity in ip dosed Sprague-Dawley rat; type: toxicity, organism-based; conditions: in vivo
[15] = tested on: Rattus norvegicus; assay: Anticonvulsant activity in ip dosed hippocampal kindled albino Sprague-Dawley rat seizure model assessed as time of rest; type: functional, Hippocampus
[16] = tested on: Rattus norvegicus; assay: Neurotoxicity in MES Sprague-Dawley rat model at 30 mg/kg, po measured after 0.25 hr; type: toxicity, organism-based; design: dose 30 mg/kg, route oral; conditions: in vivo
[17] = tested on: Rattus norvegicus; assay: Anticonvulsant activity in Sprague-Dawley rat assessed as protection against maximal electroshock-induced seizures at 30 mg/kg, po measured after 4 hrs; type: functional, organism-based; design: dose 30 mg/kg
[18] = Protective index, ratio of TD50 for neurotoxicity in ip dosed albino CF1 mouse to ED50 for anticonvulsant activity in ip dosed MES albino CF1 mouse model; type: toxicity, organism-based; conditions: in vivo, read-out: Ratio TD50/ED50
[19] = tested on: Mus musculus; assay: Anticonvulsant activity in ip dosed corneal kindled albino CF1 mouse seizure model; type: functional
[20] = tested on: Mus musculus; assay: Anticonvulsant activity in ip dosed albino CF1 mouse assessed as protection against maximal electroshock-induced seizures; type: functional
[21] = tested on: Mus musculus; assay: Anticonvulsant activity in albino CF1 mouse assessed as protection against iv infusion metrazol-induced seizures measured as clonus at 24 mg/kg, ip (reference value: 31.1 mg/kg); type: functional
[22] = tested on: Mus musculus; assay: Neurotoxicity in 44 mA current-induced seizure albino CF1 mouse model at 100 mg/kg, ip measured after 0.5 hr; type: toxicity, organism-based; design: dose 100 mg/kg, route intraperitoneal; conditions: in vivo
[23] = tested on: Rattus norvegicus; assay: Neurotoxicity in MES Sprague-Dawley rat model at 30 mg/kg, po measured after 4 hrs; type: toxicity, organism-based; design: dose 30 mg/kg, route oral; conditions: in vivo
[24] = tested on: Rattus norvegicus; assay: Neurotoxicity in MES Sprague-Dawley rat model at 30 mg/kg, po measured after 0.5 hr; type: toxicity, organism-based; design: dose 30 mg/kg, route oral; conditions: in vivo
[25] = tested on: Mus musculus; assay: Anticonvulsant activity in albino CF1 mouse assessed as protection against iv infusion metrazol-induced seizures measured as weight at 24 mg/kg, ip (reference value: 26.75 grams); type: functional
[26] = tested on: Mus musculus; assay: Anticonvulsant activity in ip dosed corneal kindled albino CF1 mouse seizure model assessed as time to peak effect; type: functional
[27] = tested on: Mus musculus; assay: Neurotoxicity in 44 mA current-induced seizure albino CF1 mouse model at 100 mg/kg, ip measured after 0.25 hr; type: toxicity, organism-based; design: dose 100 mg/kg, route intraperitoneal; conditions: in vivo
[28] = tested on: Rattus norvegicus; assay: Neurotoxicity in MES Sprague-Dawley rat model at 30 mg/kg, ip measured after 4 hrs; type: toxicity, organism-based; design: dose 30 mg/kg, route intraperitoneal; conditions: in vivo
[29] = tested on: Mus musculus; assay: Anticonvulsant activity in albino CF1 mouse assessed as protection against 44 mA current-induced seizures at 100 mg/kg, ip measured after 4 hrs; type: functional, organism-based; design: dose 100 mg/kg
[30] = tested on: Mus musculus; assay: Anticonvulsant activity in albino CF1 mouse assessed as protection against iv infusion metrazol-induced seizures measured as weight at 79 mg/kg, ip (reference value: 26.75 grams); type: functional
[31] = tested on: Rattus norvegicus; assay: Anticonvulsant activity in Sprague-Dawley rat assessed as protection against maximal electroshock-induced seizures at 30 mg/kg, po measured after 2 hrs; type: functional, organism-based; design: dose 30 mg/kg
[32] = tested on: Mus musculus; assay: Anticonvulsant activity in albino CF1 mouse assessed as protection against 32 mA current-induced seizures at 100 mg/kg, ip measured after 1 hr; type: functional, organism-based; design: dose 100 mg/kg
[33] = tested on: Mus musculus; assay: Anticonvulsant activity in albino CF1 mouse assessed as protection against iv infusion metrazol-induced seizures measured as time to clonus at 79 mg/kg, ip (reference value: 29.4 seconds); type: functional
[34] = tested on: Mus musculus; assay: Anticonvulsant activity in albino CF1 mouse assessed as protection against iv infusion metrazol-induced seizures measured as twitch at 24 mg/kg, ip (reference value: 28.2 mg/kg); type: functional
[35] = tested on: Mus musculus; assay: Anticonvulsant activity in albino CF1 mouse assessed as protection against 44 mA current-induced seizures at 100 mg/kg, ip measured after 0.5 hr; type: functional, organism-based; design: dose 100 mg/kg
[36] = tested on: Rattus norvegicus; assay: Neurotoxicity in MES Sprague-Dawley rat model at 30 mg/kg, ip measured after 0.25 hr; type: toxicity, organism-based; design: dose 30 mg/kg, route intraperitoneal; conditions: in vivo
[37] = tested on: Mus musculus; assay: Anticonvulsant activity in ip dosed albino CF1 mouse assessed as protection against 6 Hz current-induced seizures measured as time to peak effect; type: functional
[38] = tested on: Mus musculus; assay: Anticonvulsant activity in ip dosed albino CF1 mouse assessed as protection against iv infusion metrazol-induced seizures; type: functional, organism-based
[39] = tested on: Mus musculus; assay: Anticonvulsant activity in albino CF1 mouse assessed as protection against iv infusion metrazol-induced seizures measured as time to clonus at 24 mg/kg, ip (reference value: 29.4 seconds); type: functional
[40] = tested on: Mus musculus; assay: Anticonvulsant activity in albino CF1 mouse assessed as protection against 32 mA current-induced seizures at 100 mg/kg, ip measured after 0.25 hr; type: functional, organism-based; design: dose 100 mg/kg
[41] = tested on: Mus musculus; assay: Neurotoxicity in albino CF1 mouse at 100 mg/kg, ip measured after 0.25 hr; type: toxicity, organism-based; design: dose 100 mg/kg, route intraperitoneal; conditions: in vivo
[42] = tested on: Mus musculus; assay: Anticonvulsant activity in albino CF1 mouse assessed as protection against iv infusion metrazol-induced seizures measured as time to twitch at 79 mg/kg, ip (reference value: 26.6 seconds); type: functional
[43] = tested on: Rattus norvegicus; assay: Anticonvulsant activity in Sprague-Dawley rat assessed as protection against maximal electroshock-induced seizures at 30 mg/kg, ip measured after 2 hrs; type: functional, organism-based; design: dose 30 mg/kg
[44] = tested on: Mus musculus; assay: Neurotoxicity in 32 mA current-induced seizure albino CF1 mouse model at 100 mg/kg, ip measured after 4 hrs; type: toxicity, organism-based; design: dose 100 mg/kg, route intraperitoneal; conditions: in vivo
[45] = tested on: Mus musculus; assay: Neurotoxicity in 44 mA current-induced seizure albino CF1 mouse model at 100 mg/kg, ip measured after 1 hr; type: toxicity, organism-based; design: dose 100 mg/kg, route intraperitoneal; conditions: in vivo

O=C1NC(=O)[C@@H]2CCCN2[C@H]1c1cccc(OC(F)(F)F)c1
Activity [1]: Non-toxic | Activity [2]: Non-toxic | selectivity ratio [3]: 2.8 | Activity [4]: Non-toxic | Activity [5]: Non-toxic | Activity [6]: Non-toxic | Activity [7]: inactive | Activity [8]: Non-toxic | Activity [9]: inactive | ED50 [10]: 40 µmol/kg | Activity [11]: Active | Activity [12]: 64.8 mg/kg | Activity [13]: Toxic | TD50 [14]: 114 µmol/kg | Time [15]: 0.25 h | Activity [16]: Non-toxic | Activity [17]: inactive | selectivity ratio [18]: 3.2 | ED50 [19]: 171 µmol/kg | ED50 [20]: 76 µmol/kg | Activity [21]: 41.7 mg/kg | Activity [22]: Toxic | Activity [23]: Non-toxic | Activity [24]: Non-toxic | Activity [25]: 26.8 g | Time [26]: 0.25 h | Activity [27]: Toxic | Activity [28]: Non-toxic | Activity [29]: inactive | Activity [30]: 27.6 g | Activity [31]: inactive | Activity [32]: Active | Time [33]: 94.6 s | Activity [34]: 35.2 mg/kg | Activity [35]: Active | Activity [36]: Non-toxic | Time [37]: 0.25 h | Activity [38]: Dose-dependent effect | Time [39]: 39.4 s | Activity [40]: Active | Activity [41]: Toxic | Time [42]: 63.1 s | Activity [43]: inactive | Activity [44]: Non-toxic | Activity [45]: Non-toxic
